Data from the NIST ThermoML archive (doi:10.1016/j.jct.2015.09.022).
± gives the expanded uncertainty stated by the source.

Assay: xn = mol fraction of the nth substance listed
Conditions: 100.7 kPa, Liquid; for viscosity: Falling or rolling sphere viscometry; for speed of sound: Frequency=3 MHz, Sing-around technique in a fixed-path interferometer; for mass density: Vibrating tube method

CCCC[n+]1ccn(C)c1.O=S(=O)([N-]S(=O)(=O)C(F)(F)F)C(F)(F)F + CCCCOC(C)=O
Conditions	mass density, 298.15 K [kg/m3]	mass density, 303.15 K [kg/m3]	mass density, 308.15 K [kg/m3]	speed of sound, 298.15 K [m/s]	speed of sound, 303.15 K [m/s]	speed of sound, 308.15 K [m/s]	viscosity, 298.15 K [mPa·s]	viscosity, 303.15 K [mPa·s]	viscosity, 308.15 K [mPa·s]
x1 = 0.0252	–	–	–	1187.2 ± 1.4	1167.5 ± 1.4	1147.2 ± 1.4	–	–	–
x1 = 0.0521	–	–	–	1185.1 ± 1.4	1165.2 ± 1.4	1146.7 ± 1.4	–	–	–
x1 = 0.0754	–	–	–	1183.4 ± 1.4	1164.2 ± 1.4	1146.3 ± 1.4	–	–	–
x1 = 0.11	1002.7 ± 0.27	997.7 ± 0.28	992.65 ± 0.28	1182 ± 1.4	1163.8 ± 1.4	1145.8 ± 1.4	1.65 ± 0.17	1.32 ± 0.13	1.08 ± 0.11
x1 = 0.2089	1091.17 ± 0.27	1086.13 ± 0.28	1081.08 ± 0.28	1182.3 ± 1.4	1165.8 ± 1.4	1149.4 ± 1.4	3.16 ± 0.32	2.47 ± 0.25	2 ± 0.2
x1 = 0.2993	1157.05 ± 0.29	1152.05 ± 0.3	1147.06 ± 0.3	1184.9 ± 1.4	1169.6 ± 1.4	1154.5 ± 1.4	5.48 ± 0.55	4.19 ± 0.42	3.3 ± 0.33
x1 = 0.393	1214.08 ± 0.33	1209.12 ± 0.34	1204.12 ± 0.34	1189 ± 1.4	1174.7 ± 1.4	1160.6 ± 1.4	8.7 ± 0.87	6.7 ± 0.67	5.35 ± 0.54
x1 = 0.4847	1261.35 ± 0.37	1256.55 ± 0.38	1251.44 ± 0.38	1194 ± 1.4	1180.5 ± 1.4	1167.2 ± 1.4	13 ± 1.3	10 ± 1	7.85 ± 0.79
x1 = 0.5739	1300.9 ± 0.42	1296 ± 0.42	1291.12 ± 0.41	1199.2 ± 1.5	1186.3 ± 1.5	1173.6 ± 1.5	18.01 ± 1.8	13.81 ± 1.4	10.8 ± 1.1
x1 = 0.687	1344.53 ± 0.47	1339.68 ± 0.47	1335.03 ± 0.47	1206.6 ± 1.5	1194.3 ± 1.5	1182.2 ± 1.5	25.24 ± 2.5	19.35 ± 1.9	15.26 ± 1.5
x1 = 0.7791	1375.41 ± 0.51	1370.57 ± 0.51	1365.95 ± 0.51	1212.7 ± 1.5	1201.8 ± 1.5	1189.1 ± 1.5	31.73 ± 3.2	25.04 ± 2.5	20 ± 2
x1 = 0.9056	1412.56 ± 0.57	1407.82 ± 0.57	1403.1 ± 0.57	1221.6 ± 1.5	1211.6 ± 1.5	1199.2 ± 1.5	41.39 ± 4.2	33.3 ± 3.4	27.56 ± 2.8
x1 = 1	1436.82 ± 0.62	1431.98 ± 0.61	1427.16 ± 0.61	1227.8 ± 1.5	1217.5 ± 1.5	1205.2 ± 1.5	50.04 ± 5	40.72 ± 4.1	33.73 ± 3.4
